How the values were obtained:
hnRNP A1 [1] = molecular target: T1, hnRNP A1 (Homo sapiens, UniProt P09651, D123A/H120A/N171A/Y124A); experiment: Photo-cross-linked inhibitor bead binding assay; settings: alanine substitutions at 120, 123, 124 and 171
T1 construct: pGEX-2T/hnRNP A1 (full length hnRNP A1) and pGEX-2T/UP1 GST fusions; made in house; host or cells: HEK293 cells
Procedure: (§1) Photo-cross-linked C11 and IRES-J007 beads were prepared as previously described (25). Activated Sepharose beads were washed three times with 1 mM aqueous HCl followed by coupling solution (100 mM NaHCO3 and 50% dioxane mixture). A solution of photoaffinity linker in coupling solution was subsequently added to the beads and incubated at 37° C. for 2 h. After washing five times with coupling solution the beads were blocked and placed in a spin column and washed three times with water and methanol. The beads were subsequently irradiated in a UV cross-linker at 365 nm (4 J/cm2) and washed with methanol. Purified GST-tagged native or mutant hnRNP A1 proteins were added to 20 μl of C11 or J007 cross-linked or control uncross-linked beads. After incubating at 4° C. for 24 h, the beads were washed three times and bound proteins eluted in 10% SDS-PAGE sample buffer at 100° C. for 5 min. and the eluted proteins were resolved by SDS-PAGE and immunoblotted using GST antibodies.
(§2) The configurations with the most favorable binding energies were visualized using PyMOL v1.5.6. The electrostatic surface representation of the crystal structure of UP1 is shown with RNP residues of RRM1 and RRM2 labeled in blue. In the 90°-rotated model, the inhibitor interaction pocket is shown in yellow. The inset is a close-up of C11 and IRES-J007 binding to the potential binding site on UP1. Residues predicted to interact with the inhibitors are labeled. (B) Purified GST-tagged wild-type hnRNP A1 (A1) and mutant A1 (4ΔA1) proteins harboring alanine substitutions at all four potential binding sites (120, 123,124 and 171) were added to uncross-linked, C11 and J007-cross-linked beads. Isolated wild-type (A1) and mutant (4ΔA1) proteins were resolved by SDS-PAGE and silver-stained to monitor purity (top panels). The binding of A1 to control, C11 and J007 beads was detected by immunoblotting with GST antibodies (bottom panel). (C) Inhibition of basal IRES activity in 293T cells upon treatment with C11 or IRES-J007. IRES reporter activity was assessed following 24 h treatment with 50 nM concentrations of each inhibitor as indicated. The mean and +SD are shown for three independent experiments. (D) RNA-pull down assays utilizing biotinylated cyclin D1 or c-MYC IRES RNAs of 293T cell extracts treated with the inhibitors as in FIG. 2C.
(§3) To further examine how C11 and IRES-J007 inhibit hnRNP A1 function, used in silico docking analysis was used to create a potential model for the binding of these inhibitors to UP1. […] The purified proteins were then incubated with control, C11 or J007 beads and binding analyzed by immunoblotting using anti-GST antibodies. […]

hnRNP A1 [2] = molecular target: T2, hnRNP A1 (Homo sapiens, UniProt P09651); experiment: Photo-cross-linked inhibitor bead binding assay; settings: vs control beads, anti-GST immunoblot
T2 construct: pGEX-2T/hnRNP A1 (full length hnRNP A1) and pGEX-2T/UP1 GST fusions; made in house; host or cells: HEK293 cells
Procedure: as §1, §2, §3

human p27Kip1 IRES = experiment: Dicistronic IRES mRNA reporter assay, p27Kip1 IRES; type: cell-based; settings: LN229 cells
Procedure: Western blot and quantitative RT-PCR analyses were performed as previously described (19). For Western blotting, cells or tissues were lysed in RIPA (lysis) buffer containing protease inhibitor cocktail and phosSTOP phosphatase inhibitor cocktail (Roche) and extracts resolved by SDSPAGE. Proteins were transferred to PVDF membranes and incubated with the indicated antibodies. For IRES reporter assays, the indicated mRNA reporters were cotransfected into cells with pSVβ-galactosidase to normalize for transfection efficiency as described previously (16). Cells were harvested 18 h following transfection and Renilla, firefly and β-galactosidase activities determined using the Dual-Glo Luciferase and β-galactosidase assay systems (Promega).
(B) Schematic diagrams of the dicistronic constructs used in this study. […] Input and bound fractions were analyzed by immunoblotting using hnRNP A1 antibodies. […] Bound CCND1 or c-MYC RNAs were detected via RT-PCR. […]
Several dicistronic IRES mRNA reporter constructs were utilized, shown in FIG. 1B, in which the indicated IRES sequences were inserted within the intercistronic region. LN229 cells transiently transfected with these constructs were assayed for Renilla and firefly luciferase activities, which are readouts of cap-dependent and IRES-mediated translation initiation, respectively (16).

T2 sequence (P09651 whole entry, the tested form may be a part): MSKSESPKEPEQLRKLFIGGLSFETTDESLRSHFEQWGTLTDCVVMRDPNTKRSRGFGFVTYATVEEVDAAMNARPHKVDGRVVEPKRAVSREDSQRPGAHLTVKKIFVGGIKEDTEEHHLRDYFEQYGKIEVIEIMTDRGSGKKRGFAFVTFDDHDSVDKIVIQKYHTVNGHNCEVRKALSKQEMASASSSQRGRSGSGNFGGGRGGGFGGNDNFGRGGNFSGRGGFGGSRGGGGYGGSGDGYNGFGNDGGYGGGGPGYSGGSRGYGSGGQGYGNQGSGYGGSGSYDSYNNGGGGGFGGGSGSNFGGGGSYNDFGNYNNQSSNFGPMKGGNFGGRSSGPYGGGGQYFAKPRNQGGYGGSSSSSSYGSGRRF
T1 sequence (P09651 whole entry H120A/D123A/Y124A/N171A, the tested form may be a part): as the sequence (P09651 whole entry, the tested form may be a part) above, with H120A, D123A, Y124A, N171A counted along it

COc1ccc(CN2C(=O)c3ccccc3C2=O)c(OC)c1 [IRES-J007, 2-((2,4-Dimethoxyphenyl)methyl)isoindoline-1,3-dione]
amount of mutant hnRNP A1 (4ΔA1) bound to inhibitor beads relative to native hnRNP A1 (hnRNP A1 [1]): markedly reduced | binding of native GST-tagged hnRNP A1 to inhibitor-cross-linked beads (hnRNP A1 [2]): bound

COc1ccc(CN2C(=O)C(Cl)=C(Cl)C2=O)c(OC)c1 [Compound C11, reference compound]
amount of mutant hnRNP A1 (4ΔA1) bound to inhibitor beads relative to native hnRNP A1 (hnRNP A1 [1]): markedly reduced | binding of native GST-tagged hnRNP A1 to inhibitor-cross-linked beads (hnRNP A1 [2]): bound | IRES-mediated initiation from p27Kip1 IRES (human p27Kip1 IRES): did not affect
